Data: US20230365602A1, “COMPOUND FOR USE IN THE TREATMENT OF PROTOZOAL DISEASES AND PROCESS FOR PRODUCTION OF SAID COMPOUND” (QUADREL S.R.L., priority 2020, published 2023)
Entries after “also recorded” stand apart in the source; their conditions may differ. Read-outs that look alike come from different tables or passages of the source.

What was measured:
[1] = system: T. b. brucei GVR35; test: Stage II HAT mice model, live imaging; assay type: in vivo
[2] = system: mitochondria; test: Early toxicity: mitochondrial toxicity; assay type: cell-based; details: for % mitochondrial toxicity: 10 μM, 100% mitotoxic, 0% not mitotoxic; for mitochondrial toxicity: Table 4b
[3] = biological target: hERG channel (Homo sapiens, UniProt Q12809); test: Early toxicity: hERG inhibition; details: for inhibition at 10 µM: human
[4] = system: A549; test: Early toxicity: A549 cell growth; assay type: cell-based; details: 10 μM; 100% = not cytotoxic, 0% = cytostatic, −100% = cytotoxic
[5] = system: L. infantum (MHOM/MA/67/ITMAP-263) intracellular amastigotes; test: Anti-parasitic activity against L. infantum intracellular amastigotes (infection with axenic amastigotes luciferase positive); assay type: cell-based; details: Table 1; for inhibition at 10 µM / IC50: Leishmania infantum; for inhibition at 10 µM: read-out: Single Dose Assay 10 μM Mean Inhibitory Activity (%) ± SD; for IC50: read-out: Dose Response Curves IC50 ± SD; for Selectivity Index CC50/IC50 or NOAEL/IC50: THP-1 toxicity / L. infantum IC50
[6] = biological target: CYP2D6 (Homo sapiens, UniProt P10635); test: Early toxicity: CYP2D6 inhibition; assay type: in vitro ADME; details: Table 4a; for inhibition at 10 µM: human
[7] = biological target: CYP2C9 (Homo sapiens, UniProt P11712); test: Early toxicity: CYP2C9 inhibition; assay type: in vitro ADME; details: mean ± SD, Table 4a; for inhibition at 10 µM: human
[8] = biological target: CYP2C19 (Homo sapiens, UniProt P33261); test: Early toxicity: CYP2C19 inhibition; assay type: in vitro ADME; details: Table 4a; for inhibition at 10 µM: human
[9] = biological target: T1, CYP1A2 (Homo sapiens, UniProt P05177); test: Early toxicity: CYP1A2 inhibition; assay type: in vitro ADME; details: mean ± SD, Table 4a; for inhibition at 10 µM: human
T1 sequence (P05177 1-516): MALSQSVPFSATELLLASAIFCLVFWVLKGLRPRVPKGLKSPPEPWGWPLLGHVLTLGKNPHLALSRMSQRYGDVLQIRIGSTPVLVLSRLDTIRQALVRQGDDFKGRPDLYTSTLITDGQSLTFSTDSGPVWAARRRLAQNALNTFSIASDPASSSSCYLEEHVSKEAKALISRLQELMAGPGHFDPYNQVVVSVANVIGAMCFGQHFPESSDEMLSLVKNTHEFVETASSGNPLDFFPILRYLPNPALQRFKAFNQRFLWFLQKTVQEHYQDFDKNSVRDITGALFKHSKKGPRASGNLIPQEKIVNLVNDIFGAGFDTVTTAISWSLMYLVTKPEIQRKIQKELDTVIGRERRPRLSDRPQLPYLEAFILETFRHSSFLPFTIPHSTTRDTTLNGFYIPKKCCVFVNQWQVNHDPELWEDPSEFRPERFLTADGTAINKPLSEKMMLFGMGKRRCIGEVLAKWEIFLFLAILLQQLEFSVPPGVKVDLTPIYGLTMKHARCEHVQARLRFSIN

[10] = biological target: CYP3A4 (Homo sapiens, UniProt P08684); test: Early toxicity: CYP3A4 inhibition; assay type: in vitro ADME; details: Table 4a; for inhibition at 10 µM: human, read-out: % inhibition CYP3A4
[11] = Toxicity MTT assay in PMA-differentiated THP-1 cells; assay type: cell-based, human; details: human, PMA-differentiated THP-1 cells (macrophages); for CC50: THP-1 macrophages, Table 1, read-out: Toxicity CC50 ± SD or NOAEL; for IC50: Table 4b, read-out: Cytotoxicity THP-1 (IC50)
Description: (§1) The in vitro antiparasitic activity against L. infantum (MHOM/MA/67/ITMAP-263) and the toxicity against THP-1 macrophages is presented in Table 1.

[12] = system: PMA-differentiated THP-1 cells; test: as above; assay type: cell-based, human; details: for CC50: read-out: Toxicity CC50 ± SD or NOAEL
Description: as §1

[13] = system: W1-38; test: Early toxicity: W1-38 cell growth; assay type: cell-based; details: 10 μM
[14] = system: T. b. brucei L427 WT Blood-Stream Form; test: Anti-parasitic activity against T. b. brucei blood-stream form (resazurin 72 h assay); assay type: cell-based; details: Table 2; for inhibition at 10 µM: Trypanosoma brucei, read-out: Single Dose Assay 10 μM Mean Inhibitory Activity (%) ± SD
[15] = Snapshot pharmacokinetics in plasma after oral gavage; assay type: in vivo, mice; details: mouse, plasma, po, healthy BALB/c mice, 20 mg/kg gavage, Table 13
Description: Pharmacology of 5-cyclopentadecylpentyl (2-(trimethylammonio)ethyl) phosphate (19) in mice.
Blood samples were collected from the tail vein at 0, 0.5, 0.75, 1, 3, 24 and 72 hours into heparinized tubes. Moreover, biodistribution of the molecule, 72h after administration, was determined in several organs of the treated mice, namely brain, liver, spleen, kidney, heart and bone marrow. […] J Chromatogr B, 865: 55-62) by liquid chromatography mass spectrometry (LC-MS/MS).

Chain of hERG channel (Q12809 whole entry): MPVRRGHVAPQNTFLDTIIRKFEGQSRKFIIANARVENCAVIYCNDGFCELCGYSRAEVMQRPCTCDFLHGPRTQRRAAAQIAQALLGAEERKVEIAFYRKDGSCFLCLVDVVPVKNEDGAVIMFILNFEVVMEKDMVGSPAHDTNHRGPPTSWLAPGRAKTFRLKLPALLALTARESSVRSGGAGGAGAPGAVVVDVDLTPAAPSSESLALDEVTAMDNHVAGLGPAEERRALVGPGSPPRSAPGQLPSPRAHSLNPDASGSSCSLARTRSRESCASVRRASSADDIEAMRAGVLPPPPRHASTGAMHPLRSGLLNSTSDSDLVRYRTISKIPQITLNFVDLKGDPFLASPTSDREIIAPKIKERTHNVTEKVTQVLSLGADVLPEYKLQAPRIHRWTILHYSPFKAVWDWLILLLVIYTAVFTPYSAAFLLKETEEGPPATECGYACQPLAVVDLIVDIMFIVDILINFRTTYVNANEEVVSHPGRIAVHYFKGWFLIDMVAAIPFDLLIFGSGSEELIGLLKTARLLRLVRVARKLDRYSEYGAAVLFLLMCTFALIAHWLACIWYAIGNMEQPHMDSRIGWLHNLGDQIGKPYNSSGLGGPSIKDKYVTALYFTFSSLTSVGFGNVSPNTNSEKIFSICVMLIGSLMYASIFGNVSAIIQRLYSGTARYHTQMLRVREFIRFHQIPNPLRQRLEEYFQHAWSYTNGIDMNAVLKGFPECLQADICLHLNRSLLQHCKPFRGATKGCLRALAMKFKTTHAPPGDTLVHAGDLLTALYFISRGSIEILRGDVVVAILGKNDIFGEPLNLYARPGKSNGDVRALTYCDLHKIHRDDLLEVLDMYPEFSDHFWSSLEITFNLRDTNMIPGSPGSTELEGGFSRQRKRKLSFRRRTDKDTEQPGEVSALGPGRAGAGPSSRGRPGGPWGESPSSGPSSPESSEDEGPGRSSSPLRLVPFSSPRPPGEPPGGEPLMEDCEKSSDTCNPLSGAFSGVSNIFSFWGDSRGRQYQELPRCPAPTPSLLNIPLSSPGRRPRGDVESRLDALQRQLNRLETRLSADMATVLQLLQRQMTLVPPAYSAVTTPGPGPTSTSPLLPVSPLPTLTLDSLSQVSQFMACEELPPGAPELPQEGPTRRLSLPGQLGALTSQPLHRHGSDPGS
Chain of CYP2C9 (P11712 whole entry): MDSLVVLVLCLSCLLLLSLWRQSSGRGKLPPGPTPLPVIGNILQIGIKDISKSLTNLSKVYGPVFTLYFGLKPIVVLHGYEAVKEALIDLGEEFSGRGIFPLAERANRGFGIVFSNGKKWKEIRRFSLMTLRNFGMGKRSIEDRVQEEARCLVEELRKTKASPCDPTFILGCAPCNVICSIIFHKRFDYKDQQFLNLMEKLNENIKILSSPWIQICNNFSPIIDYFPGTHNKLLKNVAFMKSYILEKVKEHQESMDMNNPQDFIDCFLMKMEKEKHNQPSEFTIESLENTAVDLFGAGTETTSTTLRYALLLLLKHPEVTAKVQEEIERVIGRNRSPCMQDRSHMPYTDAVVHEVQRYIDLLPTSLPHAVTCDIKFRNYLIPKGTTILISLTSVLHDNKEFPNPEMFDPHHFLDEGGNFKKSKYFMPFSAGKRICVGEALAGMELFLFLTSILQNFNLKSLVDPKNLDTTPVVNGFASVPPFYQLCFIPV
Chain of CYP2C19 (P33261 whole entry): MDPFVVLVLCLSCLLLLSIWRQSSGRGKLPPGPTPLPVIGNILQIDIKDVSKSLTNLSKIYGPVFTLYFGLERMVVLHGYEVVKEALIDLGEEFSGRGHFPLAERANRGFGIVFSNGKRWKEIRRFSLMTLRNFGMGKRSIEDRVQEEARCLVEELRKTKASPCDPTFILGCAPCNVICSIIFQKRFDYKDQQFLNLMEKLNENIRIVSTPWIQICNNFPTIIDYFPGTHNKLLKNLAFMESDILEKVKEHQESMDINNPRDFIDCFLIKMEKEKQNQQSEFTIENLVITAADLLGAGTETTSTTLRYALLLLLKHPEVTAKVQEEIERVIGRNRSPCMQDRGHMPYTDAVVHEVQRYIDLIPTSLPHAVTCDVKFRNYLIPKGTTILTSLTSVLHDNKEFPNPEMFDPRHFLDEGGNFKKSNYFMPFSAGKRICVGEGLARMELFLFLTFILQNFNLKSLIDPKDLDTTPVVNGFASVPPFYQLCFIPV
Chain of CYP2D6 (P10635 whole entry): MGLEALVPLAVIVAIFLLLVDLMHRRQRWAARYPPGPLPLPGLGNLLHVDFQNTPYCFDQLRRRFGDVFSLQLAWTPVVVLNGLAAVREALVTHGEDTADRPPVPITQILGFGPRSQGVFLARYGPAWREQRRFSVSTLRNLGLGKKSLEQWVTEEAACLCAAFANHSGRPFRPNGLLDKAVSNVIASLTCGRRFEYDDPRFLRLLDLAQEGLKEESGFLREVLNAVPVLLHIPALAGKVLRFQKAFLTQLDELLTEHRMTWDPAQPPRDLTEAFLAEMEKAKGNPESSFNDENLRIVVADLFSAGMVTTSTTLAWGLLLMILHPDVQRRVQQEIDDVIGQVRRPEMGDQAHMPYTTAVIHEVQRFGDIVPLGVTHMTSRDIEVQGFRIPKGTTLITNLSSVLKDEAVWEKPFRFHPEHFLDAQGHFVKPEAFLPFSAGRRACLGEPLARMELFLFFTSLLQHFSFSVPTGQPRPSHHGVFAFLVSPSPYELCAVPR
Chain of CYP3A4 (P08684 whole entry): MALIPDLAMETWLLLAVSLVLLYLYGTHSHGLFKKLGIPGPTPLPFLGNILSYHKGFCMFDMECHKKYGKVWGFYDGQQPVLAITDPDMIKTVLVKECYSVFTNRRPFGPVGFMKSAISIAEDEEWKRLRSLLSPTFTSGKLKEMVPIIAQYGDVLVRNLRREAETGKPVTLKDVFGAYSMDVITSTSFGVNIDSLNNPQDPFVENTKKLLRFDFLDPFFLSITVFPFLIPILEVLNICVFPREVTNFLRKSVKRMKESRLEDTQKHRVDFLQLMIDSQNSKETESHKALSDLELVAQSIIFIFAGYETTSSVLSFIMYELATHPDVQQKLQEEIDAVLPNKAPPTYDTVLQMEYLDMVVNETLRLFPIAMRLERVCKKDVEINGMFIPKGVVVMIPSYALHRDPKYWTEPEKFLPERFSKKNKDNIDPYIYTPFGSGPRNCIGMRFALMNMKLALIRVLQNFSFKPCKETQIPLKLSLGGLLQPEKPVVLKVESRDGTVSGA

Structure (SMILES)	% mitochondrial toxicity [2]	Flag for Interference, hERG ([3]; Table 4b)	inhibition at 10 µM [3]	% cell growth A549 [4]	inhibition at 10 µM ([5]; 10 μM)	inhibition at 10 µM ([6]; mean ± SD)	inhibition at 10 µM [7]	inhibition at 10 µM ([8]; mean ± SD)	inhibition at 10 µM [9]	inhibition at 10 µM ([10]; 10 μM, mean ± SD)	CC50 [11]	IC50 [11]	CC50 ([12]; Table 2)	mitochondrial toxicity [2]	IC50 [5]	Selectivity Index CC50/IC50 or NOAEL/IC50 [5]	inhibition at 10 µM ([14]; 10 μM)	other results
Nc1nc(N)nc(Nc2ccc([As]3SCC(CO)S3)cc2)n1 (centres unmarked) [melarsoprol, reference compound]																		infection outcome (words) ([1]; 10 mg/kg/day IP, 7 days of treatment): able to clear the infection
C[N+](C)(C)CCOP(=O)([O-])OCCC1CCCCCCCCCCC1 [Compound 27, 2-cyclododecylethyl (2-(trimethylammonio)ethyl) phosphate]	113.87 ± 2.81%	(no)	-4.11 ± 10.4%	126.46 ± 6.12%	36 ± 5%	6.92 ± 4.21%	13.7 ± 6.52%	11 ± 5.72%	22.2 ± 1.59%	24.8 ± 3.15%	> 100 µM	> 100 µM						
C[N+](C)(C)CCCOP(=O)([O-])OCCCCCC1CCCCCCCCCCCCCC1 [Compound 20, 5-cyclonentadecyloentyl (3-(trimethylammonio)propyl) phosohate]	−3.82 ± 5.49%	(no)		104.50 ± 4.67%									> 100 µM					% inhibition hERG ([3]; 10 μM, Table 4b): 4.56 ± 15.55%; Single Dose Assay 10 μM Mean Inhibitory Activity (%) ± SD ([5]; 10 μM): 53 ± 6%; % inhibition CYP2D6 ([6]; 10 μM, mean ± SD): 44.01 ± 3.51%; % inhibition CYP2C9 ([7]; 10 μM): 15.44 ± 0.53%; % inhibition CYP2C19 ([8]; 10 μM, mean ± SD): 52.28 ± 5.17%; % inhibition CYP1A2 ([9]; 10 μM): 10.14 ± 3.87%; % inhibition CYP3A4 ([10]; 10 μM, mean ± SD): 22.83 ± 5.05%; CC50 ([12]; THP-1 macrophages, Table 1): > 100 µM; IC50 ([12]; Table 4b, read-out: Cytotoxicity THP-1 (IC50)): > 100 µM; % cell growth W1-38 [13]: 98.77 ± 10.61%; Single Dose Assay 10 μM Mean Inhibitory Activity (%) ± SD ([14]; 10 μM): 24 ± 10%
C[N+](C)(C)CCOP(=O)([O-])OCCCCCC1CCCCCCCCCCC1 [Compound 17, 5-cyclododecylpentyl (2-(trimethylammonio)ethyl) phosphate]	110.46 ± 13.08%	(no)	26.3 ± 12.9%	121.61 ± 8.94%	96 ± 2%	48.9 ± 2.97%	10.3 ± 6.3%	35.9 ± 4.97%	18.9 ± 0.69%	55.3 ± 4.28%	> 100 µM	> 100 µM	> 100 µM	exhibit mitochondrial toxicity	0.6 ± 0.2 µM	>166	21 ± 15%	AUC(0-inf) ([15]; read-out: AUC (0-∞)): 11300 ng·h/mL; AUC(0-inf) ([15]; read-out: AUC (0-∞) (μM h/mL)): 26.9 µM·h; Cmax ([15]; read-out: Cmax): 4.88 µM; Cmax ([15]; read-out: Cmax (μg/mL)): 2.05 µg/mL; Tmax ([15]; read-out: tmax): 3 h; half-life ([15]; read-out: t½ (converted)): 6.9 h; CYP2D6 interaction / inhibition ([6]; 10 μM): interact; also recorded: significant inhibition; CYP2C19 interaction / inhibition ([8]; 10 μM): interact; also recorded: significant inhibition; CYP3A4 interaction [10]: interact; activity against T. b. brucei blood-stream form [14]: unexpectedly high activity in the low micromolar range
C[N+](C)(C)CCCOP(=O)([O-])OCCCCC=C1CCCCCCCCCCCCCC1 [Compound 15, 5-cyclopentadecylidenepentyl (3-(trimethylammonio)propyl) phosphate]	1.08 ± 12.57%	(no)	15.5 ± 4.66%	112.20 ± 6.11%	49 ± 1%	32.4 ± 2.88%	15.6 ± 6.17%	42 ± 7.27%	9.44 ± 2.84%	23.4 ± 1.94%	> 100 µM	> 100 µM	> 100 µM				14 ± 5%	% cell growth W1-38 [13]: 124.02 ± 7.42%
C[N+](C)(C)CCOP(=O)([O-])OCCCCC1CCCCCCCCCCC1 [Compound 16, 4-cyclododecylbutyl (2-(trimethylammonio)ethyl) phosphate]					87 ± 17%						> 100 µM		> 100 µM		0.86 ± 0.33 µM	>116		
C[N+](C)(C)CCOP(=O)([O-])OCCCC=C1CCCCCCCCCCC1 [Compound 11, 4-cyclododecylidenebutyl (2-(trimethylammonio)ethyl) phosphate]					76 ± 22%						> 100 µM		> 100 µM		2.59 ± 0.94 µM	>38.6		
C[N+](C)(C)CCOP(=O)([O-])OCCCCC=C1CCCCCCCCCCC1 [Compound 12, 5-cyclododecylidenepentyl (2-(trimethylammonio)ethyl) phosphate]	113.57 ± 12.08%	(no)	-2.04 ± 7.61%	130.21 ± 5.63%	95 ± 2%	15.1 ± 2.98%	1.76 ± 1.59%	11.2 ± 5.4%	10.2 ± 5.03%	35.7 ± 6.01%	> 100 µM	> 100 µM	> 100 µM	exhibit mitochondrial toxicity	0.9 ± 0.7 µM	>111	8 ± 8%	
N=C(N)c1ccc(OCCCCCOc2ccc(C(=N)N)cc2)cc1 [pentamidine, reference compound]																		infection in the brain ([1]; 5 mg/kg/day IP): not able to clear infection in the brain
C[N+](C)(C)CCOP(=O)([O-])OCCC1CCCCCCCCCCCCCC1 [Compound 28, 2-cyclopentadecylethyl (2-(trimethylammonio)ethyl) phosphate]	119.09 ± 14.82%	(no)	39 ± 5.84%	120.79 ± 0.63%	70 ± 7%	37.7 ± 3.27%	9.6 ± 4.6%	21.3 ± 3.7%	15.6 ± 2.12%	27.8 ± 1.95%	> 100 µM	> 100 µM		exhibit mitochondrial toxicity	1.12 ± 0.45 µM	>90		
